For six compounds, IC50 results are on record in ChEMBL document CHEMBL1129209, “Molecular interactions of all possible regioisomers of synthetic myo-inositol phosphates with inositol 1,4,5-trisphosphate 3-kinase” (Bioorg Med Chem Lett, 1997).

Each structure is given as a SMILES string.

The assay can be described thus: Inhibition of Inositol 1,4,5-trisphosphate 3-kinase (IP3K) from rat brain.

For orientation: IC50 means the midpoint of a concentration-inhibition curve. A higher IC50 goes with lower potency. `O=P(O)(O)O[C@H]1[C@H](O)[C@@H](OP(=O)(O)O)[C@H](OP(=O)(O)O)[C@@H](OP(=O)(O)O)[C@H]1O` (stereo in doubt; form 1) yielded an IC50 of 42.1 µM. With `O=P(O)(O)O[C@@H]1[C@H](O)[C@H](O)[C@@H](OP(=O)(O)O)[C@H](OP(=O)(O)O)[C@H]1O` (stereo in doubt; form 1) [INS(1,4,5)P3] the figure was 3.55 µM; with `O=P(O)(O)O[C@H]1[C@H](O)[C@@H](OP(=O)(O)O)[C@H](OP(=O)(O)O)[C@@H](OP(=O)(O)O)[C@H]1O` (stereo in doubt; form 2), 56.7 µM; with `O=P(O)(O)O[C@@H]1[C@H](O)[C@H](O)[C@@H](OP(=O)(O)O)[C@H](OP(=O)(O)O)[C@H]1O` (stereo in doubt; form 2) [INS(1,4,5)P3], 12.4 µM. With `O=P(O)(O)O[C@H]1[C@H](O)[C@@H](OP(=O)(O)O)[C@H](OP(=O)(O)O)[C@@H](OP(=O)(O)O)[C@H]1O` (stereo in doubt; form 3), inhibition was half-maximal at 220 µM (IC50). Then `O=P(O)(O)O[C@H]1[C@H](O)[C@@H](OP(=O)(O)O)[C@H](OP(=O)(O)O)[C@@H](OP(=O)(O)O)[C@H]1O` (stereo in doubt; form 4), with 65.2 µM.
